Results from US8569039B2, “Ethanol resistance Saccharomyces cerevisiae GP-01 by protoplast fusion, method for manufacturing thereof, method for manufacturing yeast containing high content of bio organic germanium by using Saccharomyces cerevisiae GP-01 and high water soluble sodium metagermanate as a germanium source” (Geranti Pharm Ltd., priority 2008, dated 2013).

Experiments:
[1] = test system: Saccharomyces Cerevisiae (KCTC 7904); assay: Bio-germanium content inoculated into the yeast by content of germanium in the solution; type: cell-based; details: KCTC7904; for Bio-germanium content inoculated into the yeast: 20 hours, pH 10, 40° C.
[2] = Solubility of the germanium source; type: physicochemical; details: 25° C.
Experimental: The solution of Sodium Metagermanate (Na2GeO3) was prepared by dissolving sodium carbonate (Na2CO3, Kanto, Japan) in water, adding germanium dioxide (GeO2, PPM GmbH, Germany) at the equivalent ratio of 1:1 against the said sodium carbonate, and sterilized the obtained solution.

[3] = test system: yeast GP-01 (KCTC11399BP); assay: Germanium inoculated into the yeast by pH, temperature and surfactant concentration; type: cell-based, Saccharomyces Cerevisiae; details: 5,000 ppm germanium, ratio 1:0.5, 20 hours
Experimental: (§1) In order to determine the content of bio-germanium in the yeast GP-01, 1 g of the cultivated and dried yeast GP-01 was added in 30 ml of nitric acid. The obtained sample was heated to be decomposed. After adjusting pH value to 6, 1 ml of the sample was mixed with 1 ml of phenylfluorone and 1 ml of cyclo nucleic acid. The obtained sample was stationary for 30 hours at 30° C. and then determined the content of germanium in the yeast GP-01 by using UV spectrophotometer at 525 nm.
The broth containing the ethanol-resistant yeast GP-01 as prepared in the Example 1 was centrifuged to collect the yeast. At the ratio of 1:0.5, the collected yeast was added in the solution of sodium metagermanate (Na2GeO3) having 5,000 ppm of germanium. After adding surfactant (Twin-80), the obtained solution was cultivated for 20 hours by various conditions for pH, temperature or the broth containing germanium.
The pH was regulated by using 1N NaOH, and a number of tests were repeatedly performed under different temperatures and concentrations of surfactant.
When measuring the content of germanium, the broth without adding the surfactant was used as a control.
The measurement of content of bio-germanium in the yeast GP-01 (KCTC11399BP) of the present invention was made by the same method as Example 2.

[4] = test system: yeast GP-01 (KCTC11399BP); assay: Bio-germanium content inoculated into the yeast by content of germanium in the solution; type: cell-based, Saccharomyces Cerevisiae; details: for Bio-germanium content inoculated into the yeast: 20 hours, pH 10, 40° C.
Experimental: The broth medium containing the mutated Saccharomyces Cerevisiae, yeast GP-01 (KCTC11399BP), was centrifuged to collect the palletized yeast. The collected pelletized yeast was added in each of the solutions of sodium metagermanate (Na2GeO3) with different concentrations of germanium. The prepared solutions were cultivated for 20 hours at pH 10 and temperature 40° C.
In order to determine the content of bio-germanium in the yeast GP-01, 1 g of the cultivated and dried yeast GP-01 was added in 30 ml of nitric acid. The obtained sample was heated to be decomposed. After adjusting pH value to 6, 1 ml of the sample was mixed with 1 ml of phenylfluorone and 1 ml of cyclo nucleic acid. The obtained sample was stationary for 30 hours at 30° C. and then determined the content of germanium in the yeast GP-01 by using UV spectrophotometer at 525 nm. […]

[5] = test system: yeast GP-01 (KCTC 11399BP); assay: Bio-germanium content in yeast by mixing ratio of yeast and Ge solution; type: cell-based, Saccharomyces Cerevisiae; details: for Bio-germanium content in yeast GP-01: 20 hours, pH 10, 40° C.
Experimental: as §1
The broth containing the ethanol-resistant yeast GP-01 as prepared in the Example 1 was centrifuged to collect the yeast. […] The obtained solutions were cultivated for 20 hours at pH 10 and temperature 40° C.
Also, as a control, the same procedure described in Example 3 was performed, except that a solution of (inorganic) germanium dioxide (GeO2) was used instead of sodium metagermanate (Na2GeO3).
The contents of germanium in the yeast GP-01 (KCTC 11399BP) was measured by the same method as Example 2.

[6] = germanium in the solution 3,000 ppm
[7] = germanium in the solution 4,000 ppm
[8] = germanium in the solution 5,000 ppm
[9] = germanium in the solution 10,000 ppm
[10] = germanium in the solution 15,000 ppm

[Na+].[Na+].[O]=[Ge]([O-])[O-] [Na2GeO3 solution, sodium metagermanate]
Yield (%) of germanium inoculated [1, 6]: 32%
Bio-germanium content inoculated into the yeast [1, 6]: 950 ppm
Yield (%) of germanium inoculated [1, 7]: 38%
Bio-germanium content inoculated into the yeast [1, 7]: 1,500 ppm
Yield (%) of germanium inoculated [1, 8]: 47%
Bio-germanium content inoculated into the yeast [1, 8]: 2,370 ppm
Yield (%) of germanium inoculated [1, 9]: 45%
Bio-germanium content inoculated into the yeast [1, 9]: 4,500 ppm
Yield (%) of germanium inoculated [1, 10]: 38%
Bio-germanium content inoculated into the yeast [1, 10]: 5,730 ppm
solubility [2]: 500 mg/mL
Bio-germanium inoculated ([3]; Control: broth without adding the surfactant): 1,720 ppm
Bio-germanium inoculated ([3]; pH 4.0): 2,190 ppm
Bio-germanium inoculated ([3]; pH 5.0): 3,254 ppm
Bio-germanium inoculated ([3]; pH 6.0): 5,320 ppm
Bio-germanium inoculated ([3]; pH 6.5): 5,790 ppm
Bio-germanium inoculated ([3]; pH 7.0): 9,750 ppm
Bio-germanium inoculated ([3]; pH 8.0): 10,700 ppm
Bio-germanium inoculated ([3]; pH 9.0): 15,200 ppm
Bio-germanium inoculated ([3]; pH 10.0): 16,300 ppm
Bio-germanium inoculated ([3]; pH 11.0): 9,320 ppm
Bio-germanium inoculated ([3]; surfactant Twin-80 0.1 wt %): 8,743 ppm
Bio-germanium inoculated ([3]; surfactant Twin-80 0.2 wt %): 16,250 ppm
Bio-germanium inoculated ([3]; surfactant Twin-80 0.3 wt %): 12,530 ppm
Bio-germanium inoculated ([3]; surfactant Twin-80 0.4 wt %): 9,670 ppm
Bio-germanium inoculated ([3]; surfactant Twin-80 0.5 wt %): 7,624 ppm
Bio-germanium inoculated ([3]; surfactant Twin-80 0.6 wt %): 5,670 ppm
Bio-germanium inoculated ([3]; surfactant Twin-80 0.7 wt %): 4,830 ppm
Bio-germanium inoculated ([3]; surfactant Twin-80 0.8 wt %): 2,700 ppm
Bio-germanium inoculated ([3]; temperature 20 ° C.): 3,102 ppm
Bio-germanium inoculated ([3]; temperature 30 ° C.): 9,648 ppm
Bio-germanium inoculated ([3]; temperature 35 ° C.): 13,250 ppm
Bio-germanium inoculated ([3]; temperature 40 ° C.): 14,700 ppm
Bio-germanium inoculated ([3]; temperature 45 ° C.): 8,350 ppm
Bio-germanium inoculated ([3]; temperature 50 ° C.): 4,564 ppm
Yield (%) of germanium inoculated [4, 6]: 155%
Bio-germanium content inoculated into the yeast [4, 6]: 4,640 ppm
Yield (%) of germanium inoculated [4, 7]: 171%
Bio-germanium content inoculated into the yeast [4, 7]: 6,840 ppm
Yield (%) of germanium inoculated [4, 8]: 194%
Bio-germanium content inoculated into the yeast [4, 8]: 9,700 ppm
Yield (%) of germanium inoculated [4, 9]: 130%
Bio-germanium content inoculated into the yeast [4, 9]: 13,000 ppm
Yield (%) of germanium inoculated [4, 10]: 110%
Bio-germanium content inoculated into the yeast [4, 10]: 16,500 ppm
increase of content of bio-germanium versus germanium dioxide ([5]; Na2GeO3 solution compared with germanium dioxide, Table 3): 2-4 times
Bio-germanium content in yeast GP-01 ([5]; mixing ratio yeast GP-01:Ge solution 1:0.2): 4,350 ppm
Bio-germanium content in yeast GP-01 ([5]; mixing ratio yeast GP-01:Ge solution 1:0.5): 14,800 ppm
Bio-germanium content in yeast GP-01 ([5]; mixing ratio yeast GP-01:Ge solution 1:1): 12,600 ppm
Bio-germanium content in yeast GP-01 ([5]; mixing ratio yeast GP-01:Ge solution 1:2): 9,760 ppm
Bio-germanium content in yeast GP-01 ([5]; mixing ratio yeast GP-01:Ge solution 1:3): 8,720 ppm
